Several values for one entry are separate records, joined by “and”; a condition that tells them apart may be missing. Identical values can stand only once.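 Values below derive from 48-hour exposures of cells grown in 96-well plates, with endpoints linearly interpolated between the two concentrations bracketing the appropriate inhibition level. GI50 = concentration required for 50% inhibition of growth. Definition used: TGI = concentration required for complete inhibition of growth.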
Legend:
Assay in all cases: NCI tumour cell line growth inhibition, 48 h
CCRF-CEM leukemia = tested on: CCRF-CEM leukemia
HCT-15 colon = tested on: HCT-15 colon
HL-60(TB) leukemia = tested on: HL-60(TB) leukemia
KM12 colon = tested on: KM12 colon
NCI-H226 lung = tested on: NCI-H226 lung
NCI-H23 lung = tested on: NCI-H23 lung
NCI-H522 lung = tested on: NCI-H522 lung
OVCAR-8 ovarian = tested on: OVCAR-8 ovarian
SF-295 CNS = tested on: SF-295 CNS
SK-MEL-28 melanoma = tested on: SK-MEL-28 melanoma
SNB-19 CNS = tested on: SNB-19 CNS

SMILES	TGI (CCRF-CEM leukemia) [µM]	TGI (HCT-15 colon) [µM]	TGI (HL-60(TB) leukemia) [µM]	TGI (KM12 colon)	TGI (NCI-H226 lung)	TGI (NCI-H23 lung) [µM]	TGI (NCI-H522 lung) [µM]	TGI (OVCAR-8 ovarian) [µM]	TGI (SF-295 CNS) [µM]	TGI (SK-MEL-28 melanoma) [µM]	TGI (SNB-19 CNS) [µM]	GI50 (CCRF-CEM leukemia)	GI50 (HCT-15 colon)	GI50 (NCI-H226 lung)	GI50 (NCI-H23 lung)	GI50 (NCI-H522 lung) [µM]	GI50 (OVCAR-8 ovarian)
CC#CC(O)(C(=O)OC1CC(C)N(C)C(C)(C)C1)C1CCCC1 (centres undefined)	> 100	> 100	> 100	> 100 µM	> 100 µM	> 100	> 100	> 100	> 100	> 100	> 100	–	–	–	–	–	–
COC(=O)N1N=C(c2ccccc2)C1c1ccccc1 (centres undefined)	> 100	> 100	> 100	> 100 µM	77.1 µM	88	–	94	–	> 100	> 100	–	–	–	–	–	–
O=C(CC(C(=O)c1ccco1)c1ccco1)c1ccco1 (centres undefined)	> 100	–	> 100	> 100 µM	> 100 µM	> 100	> 100	> 100	> 100	> 100	–	–	–	–	–	–	–
O=[N+]([O-])c1cccc2c(N=Nc3ccc4ccccc4c3O)c(O)cc(S(=O)(=O)O)c12	66.7	> 100	91.5	> 100 µM	> 100 µM	> 100	> 100	> 100	> 100	> 100	> 100	–	–	–	–	–	–
O=C(/C=C/c1ccc2c(c1)OCO2)Cc1nc2ccccc2[nH]c1=O	> 100	> 100	> 100	> 100 µM	–	> 100	> 100	> 100	52.7	61.5	49.4	–	–	–	–	–	–
O=C1c2cccc(O)c2C(=O)c2c(O)cc(CO)cc21	> 100	> 100	> 100	> 100 µM	> 100 µM	> 100	64.6	–	> 100	> 100	> 100	–	–	–	–	–	–
O=C(OCC1OC(n2nc(Cn3nnc(-c4cccnc4)n3)n(-c3cccc4ccccc34)c2=S)C(OC(=O)c2ccccc2)C1OC(=O)c1ccccc1)c1ccccc1 (centres undefined)	> 100	> 100	> 100	> 100 µM	> 100 µM	> 100	> 100	> 100	> 100	> 100	> 100	–	–	–	–	–	–
COC(=O)C1(O)C(c2ccccc2)=NC2(C)CCCC21 (centres undefined)	> 100	> 100	–	> 100 µM	> 100 µM	> 100	> 100	> 100	> 100	> 100	> 100	–	–	–	–	–	–
Clc1ccc(/C(=C\c2ccccc2)Cn2ccnc2)cc1	> 100	39.1	45.5	20.7 µM	33.1 µM	> 100	28	33.4	49.4	38.1	49.4	–	–	–	–	–	–
O=C(CC(=O)Nc1ccccc1)NNC(c1cc(N=Nc2ccc(Br)cc2)ccc1O)P(O)O (centres undefined)	8.25	> 10	1.12	> 10 µM	9.43 µM	> 10	> 10	> 10	> 10	> 10	> 10	–	–	–	–	–	–
CC(C)N1CN(c2ccccc2)C2(CCN(CCCC(=O)c3ccc(F)cc3)CC2)C1=O	9.61	40.5	40.7	42.1 µM	46.4 µM	28.1	49.8	> 82	26.9	36.7	> 56	–	–	–	–	–	–
O=[N+]([O-])/C(Cl)=C(\NCCN/C(C(Cl)=C(Cl)Cl)=C(/Cl)[N+](=O)[O-])C(Cl)=C(Cl)Cl	> 100	> 100	87.5	> 100 µM	> 100 µM	> 100	–	> 100	> 100	> 100	> 100	–	–	–	–	–	–
CCOP(=O)(OCC)OC1CC(n2cc(C)c(=O)n(C)c2=O)OC1CO[Si](C)(C)C(C)(C)C (centres undefined)	> 100	> 100	57.4	> 100 µM	> 100 µM	> 100	> 100	> 100	> 100	> 100	> 100	–	–	–	–	–	–
CC(C)=CCC[C@@H](C)C1=C(O)C(N)=C(C)C(=O)C1=O	> 100	> 100	10.9	> 100 µM	> 100 µM	> 100	–	> 64.8	> 72.3	> 100	> 100	–	–	–	–	–	–
C=CCN1C(=O)/C(=C/c2ccc(C)cc2)N=C1SC1OC(COC(C)=O)C(OC(C)=O)C(OC(C)=O)C1OC(C)=O (centres undefined)	–	> 100	> 100	> 100 µM and 17.9 µM	> 100 µM and 85.6 µM	> 100	> 100	> 100	> 100	> 100	> 100	12.4 µM and 2.25 µM	> 100 µM and 29.7 µM	> 100 µM and 20.9 µM	> 100 µM and 27.1 µM	6.85	5.59 µM and 31.5 µM
C=CC(=O)N1C/C(=C\c2ccc(Cl)cc2)C(=O)/C(=C/c2ccc(Cl)cc2)C1	–	0.497	–	0.866 µM	3.03 µM	2.15	–	3.84	0.917	1.6	2.67	–	–	–	–	–	–
Cc1c(-c2ccccc2)[nH]n(C2=NCCN2)c1=O	> 100	> 100	> 100	> 100 µM	> 100 µM	> 100	> 100	> 100	> 100	–	> 100	–	–	–	–	–	–
COc1ccc(Oc2cnn(C(Br)(Br)C(C)=O)c(=O)c2Br)cc1	4.57	39.8	10.9	31.4 µM	46.6 µM	39	14.7	27	51.6	32.4	56.8	–	–	–	–	–	–
O=S1(=O)C[C@@H](NCc2ccccc2)[C@H](NCc2ccccc2)C1	> 100	–	–	> 100 µM	> 100 µM	> 100	> 100	> 100	> 100	> 100	> 100	–	–	–	–	–	–

Source: PubChem BioAssay (NCI)
